Laboratory results published in PMC10511884 (Frontiers in Chemistry, 2023).

Assays:
COX-1 = target: T1, COX-1 (Ovis aries, UniProt P05979); assay: In vitro COX-1 enzyme inhibitory assay; type: biochemical, sheep; settings: mean ± SEM; n = 3
T1 construct: purchased Sigma-Aldrich C0733-5000UN
T1 sequence (P05979 25-600): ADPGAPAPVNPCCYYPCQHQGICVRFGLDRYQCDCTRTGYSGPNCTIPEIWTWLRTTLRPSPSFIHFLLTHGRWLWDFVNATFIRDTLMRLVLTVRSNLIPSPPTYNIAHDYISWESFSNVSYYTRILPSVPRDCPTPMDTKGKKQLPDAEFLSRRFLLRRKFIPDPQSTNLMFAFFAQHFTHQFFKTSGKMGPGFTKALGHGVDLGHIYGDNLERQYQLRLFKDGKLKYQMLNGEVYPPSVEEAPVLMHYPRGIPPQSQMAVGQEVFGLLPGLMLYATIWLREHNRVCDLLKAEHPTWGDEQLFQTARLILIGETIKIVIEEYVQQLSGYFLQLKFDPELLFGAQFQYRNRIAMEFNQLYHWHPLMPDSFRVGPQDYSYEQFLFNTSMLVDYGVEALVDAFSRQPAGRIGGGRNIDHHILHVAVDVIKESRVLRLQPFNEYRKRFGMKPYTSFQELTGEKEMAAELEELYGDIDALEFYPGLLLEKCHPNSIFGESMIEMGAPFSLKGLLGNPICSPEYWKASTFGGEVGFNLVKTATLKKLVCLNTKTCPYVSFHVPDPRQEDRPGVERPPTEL
Method: (§1) In a nutshell, the test specimens were made in progressively higher concentrations. Furthermore, enzyme solutions for COX-1 from a sheep source (CAT: C0733-5000UN, Sigma-Aldrich) and COX-2 from a human recombinant source (CAT: C0858) were developed. COX-1 has a concentration of 0.7–0.8 g/L, whereas COX-2 has a concentration of 300 units/mL. […] The COX-2 enzyme solution was primed at 300 U/mL levels. 10 μL of the enzyme solution was kept on ice (4°C) for 5–6 min before 50 µL of the required co-factor solution was added. This solution contains 1 mM hematin in a 0.1 M Tris-buffer with pH 8.0, 0.24 mM tetramethyl-p-phenylenediamine dihydrochloride (TMPD), and 0.9 mM glutathione. Then, for the next 5–10 min, the enzyme solution (60 µL) and experiment samples (20 µL) of different strengths has been kept at the normal temperature. Similar to that, 20 µL of 30 mM arachidonic acid was utilized to start the procedure. The mixture’s temperature was held at 37°C for an additional 15 min. A UV-visible spectrophotometer was used to determine the absorbance at 570 nm after which the process was halted by adding HCl. Using the absorbance value per unit time, the percentage of COX-2 inhibition was computed. Celecoxib served as the standard control in the present study.

COX-2 = target: T2, COX-2 (Homo sapiens, UniProt P35354); assay: In vitro COX-2 enzyme inhibitory assay; type: biochemical; settings: mean ± SEM; n = 3
T2 construct: purchased Sigma-Aldrich C0858
T2 sequence (P35354 18-604): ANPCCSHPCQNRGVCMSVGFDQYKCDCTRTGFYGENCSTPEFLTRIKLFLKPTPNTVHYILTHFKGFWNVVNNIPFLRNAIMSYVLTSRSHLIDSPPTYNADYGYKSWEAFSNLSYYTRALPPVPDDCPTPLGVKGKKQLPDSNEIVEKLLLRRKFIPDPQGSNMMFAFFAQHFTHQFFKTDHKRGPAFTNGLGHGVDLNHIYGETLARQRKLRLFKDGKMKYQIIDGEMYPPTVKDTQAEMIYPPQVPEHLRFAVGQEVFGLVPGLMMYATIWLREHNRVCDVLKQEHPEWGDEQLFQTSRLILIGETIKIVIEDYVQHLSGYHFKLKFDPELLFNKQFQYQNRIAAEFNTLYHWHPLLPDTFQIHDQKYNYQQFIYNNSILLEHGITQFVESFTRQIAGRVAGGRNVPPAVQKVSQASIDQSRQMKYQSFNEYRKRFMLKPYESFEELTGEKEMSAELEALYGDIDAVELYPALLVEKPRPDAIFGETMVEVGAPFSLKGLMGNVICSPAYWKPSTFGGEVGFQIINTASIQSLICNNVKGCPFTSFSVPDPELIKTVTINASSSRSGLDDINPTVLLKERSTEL
Method: as §1

IC50 (COX-1)	IC50 (COX-2)	Structure (SMILES)
239 ± 2.3 µM	2.52 ± 0.02 µM	Cc1cc(C2=C(C(F)(F)F)NC(=O)NC2c2ccccc2)no1 (centres unmarked) [Compound C1, 5-(5-methylisoxazol-3-yl)-4-phenyl-6-(trifluoromethyl)-3,4-dihydropyrimidin-2(1H)-one]
172 ± 1.9 µM	2.43 ± 0.05 µM	COc1ccc(C2NC(=O)NC(C(F)(F)F)=C2c2cc(C)on2)cc1 (centres unmarked) [Compound C2, 4-(4-methoxyphenyl)-5-(5-methylisoxazol-3-yl)-6-(trifluoromethyl)-3,4-dihydro-pyrimidin-2(1H)-one]
22.6 ± 0.9 µM	0.93 ± 0.01 µM	COc1ccc(C2NC(=O)NC(C(F)(F)F)=C2c2cc(-c3ccccc3)on2)cc1O (centres unmarked) [Compound C3, 4-(3-hydroxy-4-methoxyphenyl)-5-(5-phenylisoxazol-3-yl)-6-(trifluoromethyl)-3,4-dihydropyrimidin-2(1H)-one]
66.8 ± 1.84 µM	8.27 ± 0.2 µM	COc1ccc(C2NC(=O)NC(C(F)(F)F)=C2c2cc(-c3ccc(-c4ccccc4)cc3)on2)cc1 (centres unmarked) [Compound C4, 5-(5-([1,1′-biphenyl]-4-yl)isoxazol-3-yl)-4-(4-methoxyphenyl)-6-(trifluoromethyl)-3,4-dihydropyrimidin-2(1H)-one]
35.5 ± 1.49 µM	0.85 ± 0.04 µM	O=C1NC(C(F)(F)F)=C(c2cc(-c3ccco3)on2)C(c2ccco2)N1 (centres unmarked) [Compound C5, 4-(furan-2-yl)-5-(5-(furan-2-yl)isoxazol-3-yl)-6-(trifluoromethyl)-3,4-dihydropyrimidin-2(1H)-one]
34 ± 1.31 µM	0.55 ± 0.03 µM	COc1ccc(C2NC(=O)NC(C(F)(F)F)=C2c2cc(-c3ccco3)on2)cc1 (centres unmarked) [Compound C6, 5-(5-(furan-2-yl)isoxazol-3-yl)-4-(4-methoxyphenyl)-6-(trifluoromethyl)-3,4-dihydro-pyrimidin-2(1H)-one]
83.8 ± 0.96 µM	0.74 ± 0.1 µM	O=C1NC(C(F)(F)F)=C(c2cc(-c3ccco3)on2)C(c2ccc(C(F)(F)F)cc2)N1 (centres unmarked) [Compound C7, 5-(5-(furan-2-yl)isoxazol-3-yl)-6-(trifluoromethyl)-4-(4-(trifluoromethyl)phenyl)-3,4-dihydropyrimidin-2(1H)-one]
91.19 ± 0.51 µM	0.79 ± 0.05 µM	Cc1ccc(C2NC(=O)NC(C(F)(F)F)=C2c2cc(-c3ccco3)on2)cc1 (centres unmarked) [Compound C8, 5-(5-(furan-2-yl)isoxazol-3-yl)-4-p-tolyl-6-(trifluoromethyl)-3,4-dihydropyrimidin-2(1H)-one]
101 ± 1.17 µM	1.7 ± 0.1 µM	O=C1NC(C(F)(F)F)=C(c2cc(-c3ccncc3)on2)C(c2ccccc2)N1 (centres unmarked) [Compound C9, 4-phenyl-5-(5-(pyridin-4-yl)isoxazol-3-yl)-6-(trifluoromethyl)-3,4-dihydropyrimidin-2(1H)-one]
61.9 ± 1.11 µM	20 ± 0.4 µM	O=C1NC(C(F)(F)F)=C(c2cc(-c3ccncc3)on2)C(c2ccncc2)N1 (centres unmarked) [Compound C10, 4-(Pyridin-4-yl)-5-(5-(pyridin-4-yl)isoxazol-3-yl)-6-(trifluoromethyl)-3,4 dihydropyrimidin-2(1H)-one]
